The record followed here is ChEMBL document CHEMBL1201862, “PubChem BioAssay data set” (2004).

Test [1] addresses Protein Wnt-3a (Mus musculus, UniProt P27467). The experiment in a line: Wnt3a-driven reporter signaling inhibition, dose response, selectivity assay for Gli-SUFU antagonist project, Wnt-LIGHT cells, luminescence (AID 651570).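 Note: Wnt-LIGHT reporter cells stimulated with conditioned medium from Wnt3a-producing cells.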 It is filed as functional. The settings on record: read-out: IC50_Mean.
Test [2] is described as follows: A Cell Based Secondary Assay To Explore Cytotoxicity of Compounds that Sensitize Mycobacterium Tuberculosis to Beta-Lactam Antibiotics. It is filed as functional.
The target of test [3] is Melanocortin receptor 4 (Homo sapiens, UniProt P32245). It is filed as functional, cell-based.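 Note: Cell-based assay with luminescence read-out, confirmatory dose-response testing for agonist activity of biased ligands at MC4R; human U2OS cells with tagged receptor and beta-arrestin; potency of agonists that increase receptor coupling to beta-arrestin.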
Chain of Melanocortin receptor 4 (P32245 whole entry, the tested form may be a part): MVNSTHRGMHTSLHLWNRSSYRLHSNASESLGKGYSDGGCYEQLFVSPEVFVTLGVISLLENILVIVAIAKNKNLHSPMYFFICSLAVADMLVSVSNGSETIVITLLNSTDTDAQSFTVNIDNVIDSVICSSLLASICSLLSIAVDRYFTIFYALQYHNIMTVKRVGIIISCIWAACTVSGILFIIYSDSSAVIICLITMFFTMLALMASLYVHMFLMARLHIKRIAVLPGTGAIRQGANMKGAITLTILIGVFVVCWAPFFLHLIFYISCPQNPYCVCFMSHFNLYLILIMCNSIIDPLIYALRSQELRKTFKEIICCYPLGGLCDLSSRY
The target of test [4] is Photoreceptor-specific nuclear receptor (Homo sapiens, UniProt Q9Y5X4). It is filed as functional, cell-based.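 Note: CHO-S cells with Gal4-NCOR and VP16-NR2E3 two-hybrid luciferase reporter.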
Chain of Photoreceptor-specific nuclear receptor (Q9Y5X4 whole entry, the tested form may be a part): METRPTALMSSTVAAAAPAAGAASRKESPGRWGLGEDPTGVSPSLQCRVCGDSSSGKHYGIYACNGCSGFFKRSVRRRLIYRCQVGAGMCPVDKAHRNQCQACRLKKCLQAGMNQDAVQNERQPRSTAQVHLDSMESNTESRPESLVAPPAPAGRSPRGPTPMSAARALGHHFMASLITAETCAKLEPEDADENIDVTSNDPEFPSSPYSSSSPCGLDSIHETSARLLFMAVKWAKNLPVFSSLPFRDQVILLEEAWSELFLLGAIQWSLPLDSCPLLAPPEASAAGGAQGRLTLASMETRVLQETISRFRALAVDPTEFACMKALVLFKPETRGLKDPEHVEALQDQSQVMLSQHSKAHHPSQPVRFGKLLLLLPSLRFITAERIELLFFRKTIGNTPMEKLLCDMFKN
In test [5] the target is 26S proteasome non-ATPase regulatory subunit 14 (Homo sapiens, UniProt O00487). The experiment in a line: inhibition of proteasome subunit RPN11 – biochemical, fluorescence polarization, uHTS hits, confirmation (AID 602368). It is filed as functional. For orientation: In fluorescence polarisation assays a small probe gives low polarisation when free and higher when bound to something large.
Chain of 26S proteasome non-ATPase regulatory subunit 14 (O00487 whole entry): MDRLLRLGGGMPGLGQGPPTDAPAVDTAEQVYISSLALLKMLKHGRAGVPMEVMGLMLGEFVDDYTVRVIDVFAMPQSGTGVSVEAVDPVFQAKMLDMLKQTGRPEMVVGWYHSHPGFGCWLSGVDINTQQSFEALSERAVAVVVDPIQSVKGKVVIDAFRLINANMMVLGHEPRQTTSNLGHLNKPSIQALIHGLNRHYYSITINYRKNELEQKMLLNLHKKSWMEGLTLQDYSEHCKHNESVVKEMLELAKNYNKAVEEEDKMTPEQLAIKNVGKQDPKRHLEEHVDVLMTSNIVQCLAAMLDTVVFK

Test [6] concerns the target 72 kDa type IV collagenase (Homo sapiens, UniProt P08253). In words: Dose Response validation of uHTS RPN11 inhibitor hits using a MMP-2 Fluorescence assay. It is filed as functional.
The target of test [7] is Prothrombin (Bos taurus, UniProt P00735). In words: thrombin inhibition, dose response, biochemical, fluorescence polarization, uHTS hits (AID 602369). It is filed as functional.

Activity calls are given as the source filed them.

Chain of 72 kDa type IV collagenase (P08253 whole entry): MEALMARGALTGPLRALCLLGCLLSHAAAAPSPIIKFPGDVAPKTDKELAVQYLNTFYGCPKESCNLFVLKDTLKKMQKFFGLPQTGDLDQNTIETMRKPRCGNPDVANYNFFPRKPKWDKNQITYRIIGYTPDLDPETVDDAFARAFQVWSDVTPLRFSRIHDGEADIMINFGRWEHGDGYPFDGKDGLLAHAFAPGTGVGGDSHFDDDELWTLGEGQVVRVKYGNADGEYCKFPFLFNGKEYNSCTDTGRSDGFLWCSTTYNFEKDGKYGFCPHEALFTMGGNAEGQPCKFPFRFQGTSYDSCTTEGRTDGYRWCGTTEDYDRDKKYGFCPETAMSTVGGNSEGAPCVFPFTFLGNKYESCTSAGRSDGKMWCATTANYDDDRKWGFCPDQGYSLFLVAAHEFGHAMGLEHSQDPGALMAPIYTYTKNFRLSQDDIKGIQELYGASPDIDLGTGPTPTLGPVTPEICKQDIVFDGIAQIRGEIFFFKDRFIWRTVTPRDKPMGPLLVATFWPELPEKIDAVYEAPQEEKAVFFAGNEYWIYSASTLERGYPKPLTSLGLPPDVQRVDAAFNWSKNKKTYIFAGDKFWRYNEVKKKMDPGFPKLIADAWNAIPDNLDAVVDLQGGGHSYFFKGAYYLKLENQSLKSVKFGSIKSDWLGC
Chain of Protein Wnt-3a (P27467 whole entry): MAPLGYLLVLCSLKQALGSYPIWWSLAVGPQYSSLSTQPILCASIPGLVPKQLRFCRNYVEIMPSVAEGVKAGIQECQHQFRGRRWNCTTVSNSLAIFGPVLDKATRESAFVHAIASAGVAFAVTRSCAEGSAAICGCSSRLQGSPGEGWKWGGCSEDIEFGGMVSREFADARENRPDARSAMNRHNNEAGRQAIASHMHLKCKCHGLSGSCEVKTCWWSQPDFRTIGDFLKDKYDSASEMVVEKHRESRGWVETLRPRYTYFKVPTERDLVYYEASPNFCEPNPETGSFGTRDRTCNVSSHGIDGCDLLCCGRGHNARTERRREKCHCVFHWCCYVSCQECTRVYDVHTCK

Turning to `Brc1ccc(-c2cn3c([n+]2-c2ccccc2)SCC3)cc1`, the IC50 in test [1] is 17.2 µM (active).
In the case of `Clc1ccc(/C=N/NC2=Nc3cccc4cccc2c34)cc1`, the CC50 (as a rule, the concentration at which the toxic effect on the cells reaches its halfway point) in test [2] is 21.4 µM (active). Besides, the EC50 (commonly the concentration needed to bring the measured effect to its halfway point) in test [3] was > 89.1 µM (inactive).
For the compound `COC(CNC(=O)CSCc1nc(-c2ccc(SC)cc2)oc1C)OC`, in test [4], the IC50 is 2.23 µM (active).
On the same count and under the same terms, the same measure for `C=C(C(=O)c1ccccc1)C(NC(C)(C)C)c1ccccc1` (stereo not drawn): 2.01 µM (active).
Regarding `Cc1ccc(NC2=NC(=O)/C(=C/c3cccs3)S2)cc1C`, the IC50 in test [5] is 25.9 µM (active); in test [6], > 100 µM (inactive); in test [7] it was 37.8 µM (active).
